Assay results as given in PubChem BioAssay (NCI).
Where “and” joins values, the source holds several entries; their conditions need not be identical. Identical values can stand only once.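 Results reflect a 48-hour exposure of cells in 96-well plates to compound at five concentrations. GI50 is the concentration that inhibits growth by half. TGI: concentration producing complete growth inhibition.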

Experiments:
Test in all cases: inhibition of tumour cell growth, NCI panel, 48 h
[1] = tested on: NCI-H226 lung
[2] = tested on: SK-MEL-5 melanoma
[3] = tested on: LOX IMVI melanoma
[4] = tested on: OVCAR-3 ovarian
[5] = tested on: HCT-15 colon
[6] = tested on: MOLT-4 leukemia
[7] = tested on: MALME-3M melanoma
[8] = tested on: SNB-75 CNS
[9] = tested on: SW-620 colon
[10] = tested on: SNB-19 CNS

## CN1C(=O)CNS1(=O)=O
[1]
  TGI: > 100 µM
[2]
  TGI: > 100 µM
[3]
  TGI: > 100 µM
[4]
  TGI: > 100 µM
[5]
  TGI: > 100 µM
[6]
  TGI: > 100 µM
[7]
  TGI: > 100 µM
[8]
  TGI: > 100 µM
[9]
  TGI: > 100 µM
[10]
  TGI: > 100 µM

## CSc1nc(SC)c2c(C)cn(Cc3ccccc3)c2n1
[1]
  TGI: > 100 µM
[2]
  TGI: > 100 µM
[3]
  TGI: > 100 µM
[4]
  TGI: > 100 µM
[5]
  TGI: > 100 µM
[6]
  TGI: > 100 µM
[7]
  TGI: > 100 µM
[8]
  TGI: > 100 µM
[9]
  TGI: > 100 µM
[10]
  TGI: > 100 µM

## CC[C@H]1[C@@H](C)C=C[C@@H](C)N1S(=O)(=O)c1ccc(C)cc1
[1]
  TGI: > 100 µM
[2]
  TGI: > 100 µM
[3]
  TGI: > 100 µM
[4]
  TGI: > 100 µM
[5]
  TGI: > 100 µM
[6]
  TGI: > 100 µM
[7]
  TGI: > 100 µM
[8]
  TGI: > 100 µM
[9]
  TGI: > 100 µM
[10]
  TGI: 35.3 µM

## CC1OC(n2ccc3ccc([N+](=O)[O-])cc32)C(O)C(O)C1O (stereo unspecified)
[1]
  TGI: > 100 µM
[2]
  TGI: > 100 µM
[3]
  TGI: > 100 µM
[4]
  TGI: > 100 µM
[5]
  TGI: > 100 µM
[6]
  TGI: > 100 µM
[7]
  TGI: > 100 µM
[8]
  TGI: > 100 µM
[9]
  TGI: > 100 µM
[10]
  TGI: > 100 µM

## CC[C@@]1(O)C(=O)OCc2c1cc1n(c2=O)Cc2cc3c(OC)cccc3nc2-1
[1]
  GI50: 0.00806 µM
  TGI: 0.078 µM and 0.445 µM
[2]
  GI50: 22.9 nM
  TGI: 0.311 µM
[3]
  GI50: 4.44 nM
  TGI: 1.14 µM
[4]
  GI50: 43.4 nM
  TGI: 1.21 µM
[5]
  TGI: > 60 µM
[6]
  GI50: 0.417 nM
[7]
  TGI: 1.89 µM
[8]
  GI50: 6.87 nM
  TGI: 2.06 µM
[9]
  GI50: 40.5 nM
  TGI: 5.65 µM
[10]
  GI50: 6.42 nM
  TGI: > 31.9 µM

## OCC(O)COc1ccc(F)cc1 (stereo unspecified)
[1]
  TGI: > 100 µM
[2]
  TGI: > 100 µM
[3]
  TGI: > 100 µM
[4]
  TGI: > 100 µM
[5]
  TGI: > 100 µM
[6]
  TGI: > 100 µM
[7]
  TGI: > 100 µM
[8]
  TGI: > 100 µM
[9]
  TGI: > 100 µM
[10]
  TGI: > 100 µM

## Cc1cc(S(=O)(=O)Nc2n[nH]c(-c3ccc(Cl)cc3)c2C#N)c(S)cc1Cl
[1]
  GI50: > 100 µM
  TGI: > 100 µM
[2]
  GI50: > 100000 nM
  TGI: > 100 µM
[3]
  GI50: > 100000 nM
  TGI: > 100 µM
[4]
  GI50: > 100000 nM
  TGI: > 100 µM
[5]
  GI50: > 100000 nM
  TGI: > 100 µM
[6]
  GI50: > 100000 nM
  TGI: > 100 µM
[7]
  GI50: > 100000 nM
  TGI: > 100 µM
[8]
  GI50: > 100000 nM
  TGI: > 100 µM
[9]
  GI50: > 100000 nM
  TGI: > 100 µM
[10]
  GI50: > 100000 nM
  TGI: > 100 µM

## Cc1cc2c(=O)cc(-c3ccc(Cl)cc3Cl)oc2c(C(=O)O)c1C
[1]
  TGI: > 100 µM
[2]
  TGI: > 100 µM
[3]
  TGI: > 100 µM
[4]
  TGI: > 100 µM
[5]
  TGI: > 100 µM
[6]
  TGI: > 100 µM
[7]
  TGI: > 100 µM
[8]
  TGI: > 100 µM
[9]
  TGI: > 100 µM
[10]
  TGI: > 100 µM

## COc1ccc(/C=C/C(=O)c2ccc(B(O)O)cc2)cc1O
[1]
  GI50: 28.2 µM
  TGI: 97.1 µM
[2]
  GI50: 14600 nM
  TGI: 37.5 µM
[3]
  GI50: 4660 nM
  TGI: 19.1 µM
[4]
  GI50: 7270 nM
  TGI: 20.1 µM
[5]
  GI50: 4950 nM
  TGI: > 39.3 µM
[6]
  GI50: 10900 nM
  TGI: > 100 µM
[7]
  GI50: 32300 nM
  TGI: > 100 µM
[8]
  GI50: 9900 nM
  TGI: 31.2 µM
[9]
  GI50: 3830 nM
  TGI: 22 µM
[10]
  GI50: 18700 nM
  TGI: > 64.3 µM

## CN1CCN(C(=O)OCc2nc3c(N4CCOCC4)nc(-c4ccccc4)nc3n2C)CC1
[1]
  GI50: 1.61 µM
  TGI: 3.78 µM
[2]
  GI50: 1500 nM
  TGI: 2.85 µM
[3]
  GI50: 176 nM
  TGI: 0.443 µM
[4]
  GI50: 295 nM
  TGI: 1.16 µM
[5]
  GI50: 317 nM
  TGI: 1.26 µM
[6]
  GI50: 526 nM
  TGI: 3.12 µM
[7]
  GI50: 1440 nM
  TGI: 2.8 µM
[8]
  GI50: 1040 nM
  TGI: 2.27 µM
[9]
  GI50: 329 nM
  TGI: 1.19 µM
[10]
  GI50: 1450 nM
  TGI: 2.78 µM

## N#C/C(=C\c1ccc([N+](=O)[O-])cc1)n1nnc2cc(F)c(F)cc21
[1]
  GI50: 1.97 µM
  TGI: 5.73 µM
[2]
  GI50: 1890 nM
  TGI: 3.69 µM
[3]
  GI50: 1550 nM
  TGI: 2.97 µM
[4]
  GI50: 1850 nM
  TGI: 3.58 µM
[5]
  GI50: 1930 nM
  TGI: 5.44 µM
[6]
  GI50: 2970 nM
  TGI: 10.5 µM
[7]
  GI50: 2080 nM
  TGI: 5.3 µM
[8]
  GI50: 1520 nM
  TGI: 3.02 µM
[9]
  GI50: 1730 nM
  TGI: 3.53 µM
[10]
  GI50: 2960 nM
  TGI: 10.4 µM

## COc1ccc(-c2nc(Nc3ccc(F)cc3)nc(Nc3ccc4c(c3)nc(C)n4Cc3ccccc3)n2)cc1
[1]
  GI50: 5.34 µM
  TGI: > 100 µM
[2]
  GI50: 3200 nM
  TGI: 24.2 µM
[3]
  GI50: 3980 nM
  TGI: 57.6 µM
[4]
  GI50: 6540 nM
  TGI: > 100 µM
[5]
  GI50: 2950 nM
  TGI: > 100 µM
[6]
  GI50: 3440 nM
  TGI: > 100 µM
[7]
  GI50: 4320 nM
  TGI: > 100 µM
[8]
  GI50: 2830 nM
  TGI: > 100 µM
[9]
  GI50: 5250 nM
  TGI: > 100 µM
[10]
  GI50: 6900 nM
  TGI: > 100 µM

## O=C(NCCCNc1cc(-c2cn(-c3ccccc3)nc2-c2cccc(O)c2)ccn1)c1ccc(F)cc1
[1]
  GI50: 3.7 µM
  TGI: 12.4 µM
[2]
  GI50: 1610 nM
  TGI: 3.55 µM
[3]
  GI50: 2270 nM
  TGI: 5.88 µM
[4]
  GI50: 4030 nM
  TGI: 40.7 µM
[5]
  GI50: 1770 nM
  TGI: 4.7 µM
[6]
  GI50: 2360 nM
  TGI: 14 µM
[7]
  GI50: 1950 nM
  TGI: 4.49 µM
[8]
  GI50: 5190 nM
  TGI: > 100 µM
[9]
  GI50: 2950 nM
  TGI: 9.55 µM
[10]
  GI50: 4630 nM
  TGI: 29.5 µM

## CC(C)[C@]12O[C@H]1[C@@H]1O[C@]13[C@]1(O[C@H]1C[C@H]1C4=C(CC[C@@]13C)C(=O)OC4)[C@@H]2OC(=O)OC(C)(C)C
[1]
  GI50: < 0.0143 µM
  TGI: 0.173 µM
[2]
  GI50: 11.4 nM
  TGI: 0.0247 µM
[3]
  GI50: < 10 nM
  TGI: > 100 µM
[4]
  GI50: 17.1 nM
  TGI: 0.883 µM
[5]
  GI50: 25.3 nM
  TGI: > 100 µM
[6]
  GI50: 15.6 nM
[7]
  GI50: 16.6 nM
  TGI: 0.0555 µM
[8]
  GI50: 19.3 nM
  TGI: 0.062 µM
[9]
  GI50: < 10 nM
  TGI: > 100 µM
[10]
  GI50: 128 nM
  TGI: > 100 µM

## COc1ccc2c(c1)OC(N)=C(C#N)C2c1ccc(F)c(F)c1 (stereo unspecified)
[1]
  GI50: 19.2 µM
  TGI: > 100 µM
[2]
  GI50: 415 nM
  TGI: 29.7 µM
[3]
  GI50: 589 nM
  TGI: > 100 µM
[4]
  GI50: 324 nM
  TGI: 3.4 µM
[5]
  GI50: 348 nM
  TGI: > 59 µM
[6]
  GI50: 550 nM
  TGI: > 100 µM
[7]
  GI50: 619 nM
  TGI: 77.4 µM
[8]
  GI50: 186 nM
  TGI: 4.87 µM
[9]
  GI50: 398 nM
  TGI: > 100 µM
[10]
  GI50: 580 nM
  TGI: > 100 µM
